The results in this text go back to PubChem BioAssay (NCI).

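How tested: cells in 96-well plates exposed to compound for 48 hours at five concentrations. GI50: concentration for 50% inhibition of growth. At the TGI there is no net growth.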

Among the test systems are HCT-116 colon; M14 melanoma; SK-MEL-2 melanoma; UACC-62 melanoma; ACHN renal; K-562 leukemia; MDA-MB-435; NCI/ADR-RES ovarian; T-47D breast; HS 578T breast.
Test in all cases: NCI tumour cell line growth inhibition, 48 h

Regarding `CN(C)c1ccc([O][Bi]([Cl])[Cl])cc1`, the GI50 was above 100 µM with HCT-116 colon, 87 µM in the assay with M14 melanoma, above 100 µM in the assay with SK-MEL-2 melanoma and above 100 µM in the assay on UACC-62 melanoma. Besides, the TGI in the assay with HCT-116 colon, in the assay with M14 melanoma, with SK-MEL-2 melanoma and in the assay with UACC-62 melanoma was above 100 µM each time.
In the case of `CC(=O)[CH-]C(=O)c1ccccc1.CC(=O)[CH-]C(=O)c1ccccc1.CC1(C)C2CCC1(C)C([O-])C2.CC1(C)C2CCC1(C)C([O-])C2.[Ti+4]`, the GI50 is 54.4 µM with ACHN renal; 34.9 µM with HCT-116 colon; 30.5 µM with K-562 leukemia; 20.4 µM in the assay on M14 melanoma; 14.2 µM in the assay with SK-MEL-2 melanoma; 16.7 µM in the assay with UACC-62 melanoma. Moreover, the TGI in the assay with ACHN renal is above 100 µM; in the assay with HCT-116 colon, above 100 µM; in the assay on K-562 leukemia, above 100 µM; with M14 melanoma it was 44.1 µM; with SK-MEL-2 melanoma, 29.6 µM; in the assay on UACC-62 melanoma, 51.3 µM.
With `O=c1cc2ccccc2nn1Cc1cccc(Cl)c1`, the TGI in the assay on ACHN renal, in the assay with HCT-116 colon, in the assay on K-562 leukemia, with M14 melanoma, in the assay on SK-MEL-2 melanoma and in the assay on UACC-62 melanoma was above 100 µM throughout.
For `CCC1(c2c(F)c(F)c(N)c(F)c2F)CCC(=O)NC1=O` (centres undefined), the TGI in the assay on ACHN renal, in the assay on HCT-116 colon, with K-562 leukemia, with M14 melanoma, in the assay on SK-MEL-2 melanoma and in the assay on UACC-62 melanoma was above 100 µM in each case.
Turning to `N#CC(C(=O)/C(=N/N)C(C#N)c1ccccc1)c1ccccc1` (centres undefined), the TGI in the assay on ACHN renal, with HCT-116 colon, in the assay on K-562 leukemia, in the assay with M14 melanoma, in the assay on SK-MEL-2 melanoma and with UACC-62 melanoma was above 100 µM each time.
In the case of `CCOC(=O)N1CCc2cc(OC)c(OC)c3c2c1cc1cc(OC)c(OC)cc13`, the TGI with ACHN renal was above 95 µM; in the assay on HCT-116 colon, 30.7 µM; in the assay on K-562 leukemia it was above 75.9 µM; in the assay on M14 melanoma, 63.6 µM; in the assay on MDA-MB-435, 2540 nM; in the assay with NCI/ADR-RES ovarian, 5.37 µM. In addition, the TGI with SK-MEL-2 melanoma was above 51.8 µM; in the assay with T-47D breast, above 60.2 µM; in the assay with UACC-62 melanoma it was 63 µM.
Regarding `Cc1ccccc1C(=O)c1ccccc1O`, the TGI in the assay with ACHN renal, with HCT-116 colon, with K-562 leukemia, with M14 melanoma, in the assay on SK-MEL-2 melanoma and with UACC-62 melanoma was above 100 µM in each case.
`N/C(=C\c1ccc(OCc2ccccc2)c(OCc2ccccc2)c1[N+](=O)[O-])C(=O)O`: the TGI with ACHN renal, in the assay on HCT-116 colon, in the assay with K-562 leukemia, in the assay with M14 melanoma, with SK-MEL-2 melanoma and in the assay on UACC-62 melanoma was above 100 µM throughout.
As to `Clc1cc(Cc2cc(Cl)c(Cl)c3c2OCOC3)c2c(c1Cl)COCO2`, the TGI in the assay on ACHN renal, in the assay on HCT-116 colon, in the assay on K-562 leukemia, in the assay on M14 melanoma, with SK-MEL-2 melanoma and in the assay on UACC-62 melanoma was above 100 µM each time.
For `CCC/C(=N/NC(=O)C(N)=O)C(CC)C(=O)CCC(=O)N(Cc1ccccc1)Cc1ccccc1` (centres undefined), the TGI with ACHN renal, in the assay with HCT-116 colon, with K-562 leukemia, in the assay on M14 melanoma, with SK-MEL-2 melanoma and in the assay with UACC-62 melanoma was above 100 µM in each case.
On to `CC(=O)[CH-]C(=O)c1ccccc1.CC(=O)[CH-]C(=O)c1ccccc1.[Eu+3].[OH-].[OH3+]`, for which the GI50 with ACHN renal, in the assay with HCT-116 colon, with K-562 leukemia, in the assay with M14 melanoma and with UACC-62 melanoma was above 100 µM in each case. In addition, the TGI in the assay with ACHN renal, with HCT-116 colon, in the assay with K-562 leukemia, in the assay on M14 melanoma and in the assay on UACC-62 melanoma was above 100 µM each time.
As for `N#C/C(=C/c1ccc[nH]1)P(=O)(O)O`, the TGI in the assay with ACHN renal, with HCT-116 colon, with K-562 leukemia, with M14 melanoma, in the assay with SK-MEL-2 melanoma and in the assay on UACC-62 melanoma was above 100 µM each time.
Consider `COC(=O)/C([Se]c1c(C)cc(C)cc1C)=C(\[Se]c1c(C)cc(C)cc1C)C(=O)OC`, for which the TGI in the assay on ACHN renal, in the assay on HCT-116 colon, in the assay on K-562 leukemia, in the assay with M14 melanoma, in the assay on SK-MEL-2 melanoma and in the assay with UACC-62 melanoma was above 100 µM throughout.
In the case of `Oc1ccccc1C=NCc1ccco1`, the TGI in the assay on ACHN renal, in the assay with HCT-116 colon, in the assay with K-562 leukemia, in the assay on M14 melanoma and with UACC-62 melanoma was above 100 µM each time.
Consider `CC(C)c1ccc(C2C3=C(N=C4SCC(=O)N42)C(=O)c2ccccc23)cc1` (centres undefined), for which the TGI with ACHN renal, in the assay with HCT-116 colon, with K-562 leukemia, with M14 melanoma, with SK-MEL-2 melanoma and in the assay on UACC-62 melanoma was above 100 µM in each case.
Regarding `C[S+](C)CCOC(=O)C(=[N+]=[N-])c1ccc([N+](=O)[O-])cc1`, the TGI in the assay with ACHN renal, in the assay with HCT-116 colon, in the assay on K-562 leukemia, with M14 melanoma, in the assay on SK-MEL-2 melanoma and with UACC-62 melanoma was above 100 µM each time.
In the case of `Fc1ccc2c(c1)c(-c1nc(-c3c[nH]c4ncccc34)cs1)cn2CCCN1CCCCC1`, the GI50 in the assay on HCT-116 colon is 1.75 µM; in the assay with HS 578T breast, 2590 nM; in the assay with K-562 leukemia, 1.72 µM; with M14 melanoma, 1.76 µM; with MDA-MB-435 it was 1660 nM; in the assay with NCI/ADR-RES ovarian, 1640 nM. The GI50 in the assay on SK-MEL-2 melanoma is 1.96 µM. Besides, the TGI with HCT-116 colon was found to be 3.3 µM; in the assay on HS 578T breast, 7.69 µM; with K-562 leukemia, 3.6 µM; with M14 melanoma, 3.48 µM; with MDA-MB-435, 3170 nM; in the assay with NCI/ADR-RES ovarian, 3.15 µM. Also, the TGI in the assay on SK-MEL-2 melanoma was 4.25 µM.
